Results on 16 compounds are retold here after publication PMC9923772 (ACS chemical neuroscience, 2020).

SMILES strings stand for the structures. Counter-ions that a name gives are not always drawn. Like-named read-outs stand apart in the source and are kept apart here.

For experiment [1], the target named is T1, human MOR (Homo sapiens, UniProt P35372). In words: biochemical. Type of experiment: binding.
Experiment [2] concerns the target T1, human MOR. As to the kind of experiment: biochemical. The following applies: for Emax: read-out: Efficacy (% Stimulation) MOR, Table 5; for Emax / Efficacy (% Stimulation) MOR: relative to DAMGO at 10 μM.
In experiment [3] the target is T2, human DOR (Homo sapiens, UniProt P41143). As to the kind of experiment: biochemical. The following applies: for Efficacy DOR, percent maximal stimulation: Table 3; for Efficacy DOR, percent maximal stimulation / Efficacy (% Stimulation) DOR: relative to DPDPE at 10 μM; for Efficacy DOR, percent maximal stimulation / Efficacy (% Stimulation) DOR / Potency EC50 DOR: DNS = does not stimulate; for Emax: read-out: Efficacy DOR, percent maximal stimulation; for Potency EC50 DOR: [35S]GTPγS stimulation. On the technique in general: GTPγS is a poorly hydrolysed GTP analogue; its binding reports G protein activation.

For experiment [4], the target named is T3, human KOR (Homo sapiens, UniProt P41145). In words: [35S]-GTPγS binding assay, CHO-KOR membranes. Type of experiment: biochemical. The following applies: for Efficacy KOR, percent maximal stimulation: Table 3; for Efficacy KOR, percent maximal stimulation / Efficacy (% Stimulation) KOR: relative to U69,593 at 10 μM; for Efficacy KOR, percent maximal stimulation / Potency, EC50 KOR / Efficacy (% Stimulation) KOR: DNS = does not stimulate; for Potency, EC50 KOR: [35S]GTPγS stimulation.

Experiment [5] has as its target T3, human KOR. Type of experiment: binding.
The target in experiment [6] is T2, human DOR. As to the kind of experiment: biochemical. Type of experiment: binding.

`Cc1cc(O)cc(C)c1C[C@H](N)C(=O)NCc1cccc(CN2CCCCC2)c1.O=C(O)C(F)(F)F` [A, (S)-3-(4-Hydroxy-2,6-dimethylphenyl)-1-oxo-1-((3-(piperidin-1-ylmethyl)benzyl)amino)propan-2-aminium Trifluoroacetate]: the Ki (commonly the equilibrium dissociation constant of an inhibitor or competing ligand from its target) on human MOR [1] was 9.3 ± 1.3 nM. The EC50 (as a rule, the concentration giving half of the maximal effect) at human MOR [2] is above 740 nM. The “Efficacy DOR, percent maximal stimulation” value on human DOR [3] was “DNS”. Moreover, at human KOR [4], the “Efficacy KOR, percent maximal stimulation” value is “DNS”.
In turn, `COc1ccc(CN2CCCCC2)cc1CNC(=O)[C@@H](N)Cc1c(C)cc(O)cc1C.O=C(O)C(F)(F)F` [B, (S)-3-(4-Hydroxy-2,6-dimethylphenyl)-1-((2-methoxy-5-(piperidin-1-ylmethyl)benzyl)amino)-1-oxopropan-2-aminium Trifluoroacetate] showed a Ki on human KOR [5] of 23.5 ± 7.3 nM. Moreover, on human DOR [3], the Emax amounted to 37.2 ± 6.2%. Moreover, on human KOR [4] (Table 2), the “Potency, EC50 KOR” value is “DNS”. Also, the “Efficacy KOR, percent maximal stimulation” value at human KOR [4] is recorded as “DNS”.
`CCCOc1ccc(CN2CCCCC2)cc1CNC(=O)[C@@H](N)Cc1c(C)cc(O)cc1C.O=C(O)C(F)(F)F` [C, (S)-3-(4-Hydroxy-2,6-dimethylphenyl)-1-oxo-1-((5-(piperidin-1-ylmethyl)-2-propoxybenzyl)amino)propan-2-aminium Trifluoroacetate]: the Emax at human DOR [3] was found to be 39.9 ± 6.5%. Besides, the “Efficacy KOR, percent maximal stimulation” value at human KOR [4] was “DNS”.
Consider `Cc1cc(O)cc(C)c1C[C@H](N)C(=O)NCc1cc(CN2CCCCC2)ccc1OCC1CC1.O=C(O)C(F)(F)F` [D, (S)-1-((2-(Cyclopropylmethoxy)-5-(piperidin-1-ylmethyl)benzyl)amino)-3-(4-hydroxy-2,6-dimethylphenyl)-1-oxopropan-2-aminium Trifluoroacetate], for which, at human DOR [3], the Emax came out at 17.7 ± 4.4%. The “Efficacy KOR, percent maximal stimulation” value at human KOR [4] is listed as “DNS”.
For `Cc1cc(O)cc(C)c1C[C@H](N)C(=O)NCc1cccc(CN2CCc3ccccc3C2)c1.O=C(O)C(F)(F)F` [E, (S)-1-((3-((3,4-Dihydroisoquinolin-2(1H)-yl)methyl)benzyl)amino)-3-(4-hydroxy-2,6-dimethylphenyl)-1-oxopropan-2-aminium Trifluoroacetate], the Ki came out at 0.23 ± 0.02 nM at human MOR [1] and 46.3 ± 9.7 nM on human KOR [5]. This compound came in with an EC50 on human MOR [2] of 6.1 ± 3.1 nM. Also, the Emax was 126 ± 20% on human MOR [2] and 57 ± 6% at human DOR [3]. In addition, the “Efficacy (% Stimulation) DOR” value on human DOR [3] (Table 5) stood at 57±6%. Besides, the “Potency, EC50 KOR” value at human KOR [4] (Table 2) and on human KOR [4] (Table 5) was “DNS” in each case. The “Efficacy KOR, percent maximal stimulation” value on human KOR [4] was “DNS”. For the same compound, the “Efficacy (% Stimulation) KOR” value on human KOR [4] (Table 5) is reported as “DNS”.
For the compound `COc1ccc(CN2CCc3ccccc3C2)cc1CNC(=O)[C@@H](N)Cc1c(C)cc(O)cc1C` [F, (S)-1-((5-((3,4-Dihydroisoquinolin-2(1H)-yl)methyl)-2-methoxybenzyl)amino)-3-(4-hydroxy-2,6-dimethylphenyl)-1-oxopropan-2-aminium Trifluoroacetate], the Ki worked out at 0.16 ± 0.05 nM at human MOR [1], 3 ± 0.8 nM on human DOR [6] and 28.4 ± 3.1 nM at human KOR [5]. Besides, the EC50 on human MOR [2] was 2.9 ± 0.5 nM; at human DOR [3], 5 ± 0.9 nM; on human KOR [4], above 1000 nM. Also, the Emax on human DOR [3] was 29.8 ± 3.5%; on human KOR [4] (read-out: Efficacy KOR, percent maximal stimulation) it was above 15%.
As to `CCCOc1ccc(CN2CCc3ccccc3C2)cc1CNC(=O)[C@@H](N)Cc1c(C)cc(O)cc1C.O=C(O)C(F)(F)F` [G, (S)-1-((5-((3,4-Dihydroisoquinolin-2(1H)-yl)methyl)-2-propoxybenzyl)amino)-3-(4-hydroxy-2,6-dimethylphenyl)-1-oxopropan-2-aminium Trifluoroacetate], the results for the Ki at human MOR [1] and on human DOR [6] were 0.22 ± 0.04 nM and 1.4 ± 0.3 nM, respectively. The compound also came in with an EC50 on human MOR [2] of 2.6 ± 1.3 nM. In addition, at human DOR [3] (Table 2), the “Potency EC50 DOR” value is recorded as “DNS”. Moreover, at human DOR [3], the “Efficacy DOR, percent maximal stimulation” value is reported as “DNS”. Besides, the “Efficacy KOR, percent maximal stimulation” value at human KOR [4] was “DNS”.
Take `Cc1cc(O)cc(C)c1C[C@H](N)C(=O)NCc1cc(CN2CCc3ccccc3C2)ccc1OCC1CC1.O=C(O)C(F)(F)F` [H, (S)-1-((2-(Cyclopropylmethoxy)-5-((3,4-dihydroisoquinolin-2(1H)-yl)methyl)benzyl)amino)-3-(4-hydroxy-2,6-dimethylphenyl)-1-oxopropan-2-aminium Trifluoroacetate]: the Ki at human MOR [1] was found to be 0.05 ± 0.01 nM; on human DOR [6] it was 3.6 ± 0.9 nM; on human KOR [5] it was 23.5 ± 3.6 nM. The compound further gave an EC50 on human MOR [2] of 1.6 ± 0.5 nM. For the same compound, the “Potency EC50 DOR” value at human DOR [3] (Table 2) is recorded as “DNS”. The “Efficacy DOR, percent maximal stimulation” value at human DOR [3] is “DNS”. Moreover, on human KOR [4] (Table 2), the “Potency, EC50 KOR” value was “DNS”. Also, at human KOR [4], the “Efficacy KOR, percent maximal stimulation” value is “DNS”.
With `Cc1cc(O)cc(C)c1C[C@H](N)C(=O)NCCCCCN1CCc2ccccc2C1.O=C(O)C(F)(F)F` [I, (S)-1-((5-(3,4-Dihydroisoquinolin-2(1H)-yl)pentyl)amino)-3-(4-hydroxy-2,6-dimethylphenyl)-1-oxopropan-2-aminium Trifluoroacetate], affinity at human MOR [1] was put at a Ki of 1.5 ± 0.3 nM. The compound also yielded a Ki on human KOR [5] of 44.2 ± 5.6 nM. On human MOR [2], the EC50 is 15.4 ± 1.3 nM and the Emax worked out at 80.8 ± 4.5%. The “Efficacy (% Stimulation) DOR” value at human DOR [3] (Table 5) was “DNS”. For the same compound, on human KOR [4] (Table 5), the “Potency, EC50 KOR” value is given as “DNS” and the “Efficacy (% Stimulation) KOR” value is given as “DNS”.
Regarding `Cc1cc(O)cc(C)c1C[C@H](N)C(=O)NCCOCCN1CCc2ccccc2C1.O=C(O)C(F)(F)F` [J, (S)-1-((2-(2-(3,4-Dihydroisoquinolin-2(1H)-yl)ethoxy)ethyl)amino)-3-(4-hydroxy-2,6-dimethylphenyl)-1-oxopropan-2-aminium Trifluoroacetate], the “Efficacy (% Stimulation) MOR” value on human MOR [2] (Table 5) is 90.7±3.6%. In addition, at human MOR [2], the Emax was found to be 90.7%. Moreover, the “Efficacy (% Stimulation) DOR” value on human DOR [3] (Table 5) came to 27.4±8.2%. In addition, the “Efficacy (% Stimulation) KOR” value at human KOR [4] (Table 5) is 22.0±3.8%.
Take `Cc1cc(O)cc(C)c1C[C@H](N)C(=O)NCCOCC(=O)N1CCc2ccccc2C1.O=C(O)C(F)(F)F` [K, (S)-1-((2-(2-(3,4-Dihydroisoquinolin-2(1H)-yl)-2-oxoethoxy)-ethyl)amino)-3-(4-hydroxy-2,6-dimethylphenyl)-1-oxopropan-2-aminium Trifluoroacetate]: at human DOR [3] (Table 5), the “Efficacy (% Stimulation) DOR” value is listed as “DNS”. In addition, the “Efficacy (% Stimulation) KOR” value on human KOR [4] (Table 5) was “DNS”.
The compound `Cc1cc(O)cc(C)c1C[C@H](N)C(=O)N1CCC(CCN2CCc3ccccc3C2)CC1.O=C(O)C(F)(F)F` [L, (S)-1-(4-(2-(3,4-Dihydroisoquinolin-2(1H)-yl)ethyl)piperidin-1-yl)-3-(4-hydroxy-2,6-dimethylphenyl)-1-oxopropan-2-aminium Trifluoroacetate] registered a Ki at human MOR [1] of 1.64 ± 0.62 nM. The affinity on human KOR [5] corresponds to a Ki of 21 ± 5.9 nM. Also, at human MOR [2], it took 68 ± 19 nM to reach a half-maximal effect (EC50) and the Emax stood at 73 ± 12%. The “Efficacy (% Stimulation) DOR” value at human DOR [3] (Table 5) is recorded as “DNS”. Also, at human KOR [4] (Table 5), the “Potency, EC50 KOR” value was “DNS” and the “Efficacy (% Stimulation) KOR” value is reported as “DNS”.
At human MOR [1], `Cc1cc(O)cc(C)c1C[C@H](N)C(=O)N1CCN(CCN2CCc3ccccc3C2)CC1.O=C(O)C(F)(F)F` [M, (S)-1-(4-(2-(3,4-Dihydroisoquinolin-2(1H)-yl)ethyl)piperazin-1-yl)-3-(4-hydroxy-2,6-dimethylphenyl)-1-oxopropan-2-aminium Trifluoroacetate] yielded a Ki of 3.59 ± 0.4 nM. Also, the affinity at human DOR [6], expressed as Ki, was 16.6 ± 4.9 nM. Moreover, at human MOR [2], the response was half-maximal at 56 ± 17 nM (EC50) and the Emax came out at 70 ± 16%. Further, at human DOR [3] (Table 5), the “Potency EC50 DOR” value is given as “DNS” and the “Efficacy (% Stimulation) DOR” value is “DNS”. Also, on human KOR [4] (Table 5), the “Efficacy (% Stimulation) KOR” value is on record as “DNS”.
Turning to `Cc1cc(O)cc(C)c1C[C@H](N)C(=O)NCCN(C)CCN1CCc2ccccc2C1.O=C(O)C(F)(F)F` [N, (S)-1-((2-((2-(3,4-Dihydroisoquinolin-2(1H)-yl)ethyl)(methyl)amino)ethyl)amino)-3-(4-hydroxy-2,6-dimethylphenyl)-1-oxopro-pan-2-aminium Trifluoroacetate], the Ki on human MOR [1] (read-out: Binding Affinity, Ki MOR, Table 4, simple core compounds, mean ± SEM) was 1.7 ± 0.39 nM; at human DOR [6] (read-out: Binding Affinity, Ki DOR, Table 4, simple core compounds, mean ± SEM), 77 ± 45 nM; at human KOR [5] (read-out: Binding Affinity, Ki KOR, Table 4, simple core compounds, mean ± SEM), 8.5 ± 1.1 nM. Besides, the “Efficacy (% Stimulation) MOR” value on human MOR [2] (Table 5) was determined as 80.0±9.5%. Also, the EC50 at human MOR [2] (read-out: Potency, EC50 MOR, Table 5, [35S]GTPγS stimulation) turned out to be 24 ± 10 nM. Moreover, on human KOR [4] (Table 5), the “Efficacy (% Stimulation) KOR” value came out at 43.0±2.5%.
For `Cc1cc(O)cc(C)c1C[C@H](N)C(=O)NCC(=O)N(C)CCN1CCc2ccccc2C1.O=C(O)C(F)(F)F` [O, (S)-1-((2-((2-(3,4-Dihydroisoquinolin-2(1H)-yl)ethyl)(methyl)amino)-2-oxoethyl)amino)-3-(4-hydroxy-2,6-dimethylphenyl)-1-oxopropan-2-aminium Trifluoroacetate], the Emax on human MOR [2] was determined as 53 ± 17%. Besides, the “Efficacy (% Stimulation) DOR” value at human DOR [3] (Table 5) was “DNS”. On human KOR [4] (Table 5), the “Efficacy (% Stimulation) KOR” value is on record as “DNS”.
Take `Cc1cc(O)cc(C)c1C[C@H](N)C(=O)NCC(=O)NCCN1CCc2ccccc2C1.O=C(O)C(F)(F)F` [P, (S)-1-((2-((2-(3,4-Dihydroisoquinolin-2(1H)-yl)ethyl)amino)-2-oxoethyl)amino)-3-(4-hydroxy-2,6-dimethylphenyl)-1-oxopropan-2-aminium Trifluoroacetate]: the Emax on human MOR [2] is 86.6 ± 3.3%. Also, the “Efficacy (% Stimulation) DOR” value at human DOR [3] (Table 5) worked out at 36.5±1.2%. Moreover, the “Efficacy (% Stimulation) KOR” value at human KOR [4] (Table 5) is listed as “DNS”.
